{"source": "patent US6793938B2", "about": "“Biodegradable compositions for the controlled release of encapsulated substances” (Skye Pharma, Inc., priority 1998, dated 2004)", "assay": "Serum amikacin after single oral administration by gavage", "format": "in vivo, male Harlan Sprague Dawley albino rats", "details": "rat, 20 mg amikacin per rat", "protocol": "The lipid-only, 1:1 lipid/polymer and the polymer-only pharmaceutical compositions with amikacin encapsulated therein, or unencapsulated amikacin as a solution at pH 8 was administered orally by gavage to 300 g male Harlan Sprague Dawley albino rats. The number of animals per group was six. The dose was 20 mg per rat and the volume was 2 mL. Serum was collected via venipuncture (saphenous vein) from unanesthetized animals at 15, 45, 90 min., 3, 8, 24, and 48 hours. The specimens were kept at −40° C. until analysis.\nThe concentration of amikacin in serum was determined using a competitive particle concentration fluorescence immunoassay. Polystyrene beads (Idexx Research Product Division, Memphis, Tenn.) were first coated with anti-amikacin antibody (The Binding Site, San Diego, Calif.). The beads were incubated with a combination of fluorescent-labeled amikacin (The Binding Site) and serum containing amikacin which compete for the anti-amikacin antibody sites on the beads. The amount of fluorescent-labeled amikacin bound to the beads was measured by a fluorescence concentration analyzer (Idexx Research Product Division) which is inversely proportional to the amikacin concentration in serum.", "data": [{"smiles": "NCC[C@H](O)C(=O)N[C@@H]1C[C@H](N)[C@@H](O[C@H]2O[C@H](CN)[C@@H](O)[C@H](O)[C@H]2O)[C@H](O)[C@H]1O[C@H]1O[C@H](CO)[C@@H](O)[C@H](N)[C@H]1O", "note": "[unencapsulated amikacin, amikacin]", "values": [{"measurement": "peak level of the concentration of amikacin in circulation", "value": "1.82 ± 0.73", "unit": "µg/mL"}, {"measurement": "time at which peak circulatory levels were reached", "value": 45, "unit": "min"}]}]}
